Experimental data from patent US20260263596A1, “Programming B Cells to Produce IL-27 to Treat Inflammatory Diseases” (Board of Regents, The University of Texas System, priority 2022, published 2026).
“Also recorded” adds a separate entry of the source.

Assays:
STING [1] = target: STING (Homo sapiens, UniProt Q86WV6); conditions: relative to c-di-GMP; cited from earlier work
B cells [2] = assay: IL-27 induction in B cells by innate priming followed by CD154 or αCD40 plus IL-21; format: cell-based, mouse; conditions: then CD154 or αCD40 plus IL-21; for IL-27 secretion / IL-27 induction by primed B cells: priming with CDN, compared with gold-standard LPS priming; for priming of B cells for induction of Il27p28 and Ebi3: 30 μg/ml for 4 h
STING [3] = conditions: cited from earlier work
B cells [4] = conditions: cited from earlier work
ILC3s = assay: IL-27 stimulation of in vitro amplified ILC3s, FACS; format: cell-based, C57 mice
Source text: FIG. 5A-5C. […] ILC3s were sort enriched (70%) by surface markers (IL-7R+CD45+Lin−CD117+ST2−) from mesenteric lymph nodes and cultured in the presence of IL-2 and IL-7 (to promote ILC survival) as well as IL-1B plus IL-23 (to promote ILC3 proliferation)—CD117 and ST2 are preferentially, albeit not exclusively, expressed by ILC3s and ILC2s, respectively. After 7 d of culture, ILCs were amplified by >10-fold and accounted for >95% of all cells. After washing to remove cytokines, ILC3s were stimulated with nil, IL-1P/IL-23 (to promote basal IL-22 expression in ILC3s) or IL-27 for 12 h. Cells were analyzed by FACS for expression of (A) T-bet, NKp46 and (B) IL-22, IL-17A and IFNγ, as quantified in (C).
Analyze the impact of recombinant IL-27 (in vitro) and B-27 cells (in vivo) on ILC3 gene protein expression. Tg(Rorc-cre)34 (JAX #022791) and Rosa26fl-STOP-fl-EYFP (JAX #006148) mice will be crossed to generate TgRorc-creRosa26fl-STOP-fl-EYFP mice, which will allow us to sort purify EYFP+IL-7R+CD45+Lin−CD117+ST2−ILC3s. Sorted ILC3s will be cultured in the presence of IL-7 and IL-2, which promote ILC survival, and stimulated them with recombinant IL-27 for 0 h, 6 h, 12 h and 24 h.

[5] = system: STAT transcription factors; assay: STAT activation by human IL-27; format: cell-based
[6] = enriched, in vitro amplified ILC3s from C57 mice, 12 h

Chain of STING (Homo sapiens, UniProt Q86WV6) (Q86WV6 whole entry H232R, species assumed): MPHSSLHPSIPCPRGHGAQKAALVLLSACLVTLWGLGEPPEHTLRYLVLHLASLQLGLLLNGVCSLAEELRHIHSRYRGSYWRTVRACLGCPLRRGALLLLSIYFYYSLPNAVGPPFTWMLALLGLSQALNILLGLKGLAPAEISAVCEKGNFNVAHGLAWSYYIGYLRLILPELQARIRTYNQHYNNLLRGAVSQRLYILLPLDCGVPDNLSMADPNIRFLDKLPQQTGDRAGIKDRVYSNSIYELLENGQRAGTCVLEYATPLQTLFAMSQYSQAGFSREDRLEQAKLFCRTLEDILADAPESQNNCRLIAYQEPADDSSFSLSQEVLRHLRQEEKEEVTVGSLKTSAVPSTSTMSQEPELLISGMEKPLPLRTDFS

In the case of `Nc1ncnc2c1ncn2[C@@H]1O[C@@H]2COP(=O)(O)O[C@H]3[C@@H](O)[C@H](n4cnc5c(N)ncnc54)O[C@@H]3COP(=O)(O)O[C@H]2[C@H]1O` [c-di-AMP, 3′-5′ c-di-AMP], the “affinity to STING” value (STING [1]) is listed as “much lower affinity to STING than c-di-GMP” and the “IL-27 secretion / IL-27 induction by primed B cells” value (“IL-27 secretion / IL-27 induction” for short) (B cells [2]) is listed as “inefficient”.

For `Nc1nc2c(ncn2[C@@H]2O[C@H](CO)[C@@H](O)[C@H]2OP(=O)(O)OC[C@H]2O[C@@H](n3cnc4c(N)ncnc43)[C@H](O)[C@@H]2OP(=O)(O)O)c(=O)[nH]1` [2′5′-GpAp, linear GMP-AMP], the STING activation (STING [3]) is given as “does not activate STING” and the “IL-27 secretion / IL-27 induction” value (B cells [2]) is given as “inefficient”.

With cyclic GMP-AMP [cGAMP] the “priming of B cells for induction of Il27p28 and Ebi3” value (B cells [2]) was “sufficient” and the “IL-27 secretion / IL-27 induction” value (B cells [2]) was “prime B cells for IL-27 induction by CD154; also recorded: at the same magnitude as those of IL-27 induced by the gold-standard condition”.

With `Nc1nc2c(ncn2[C@@H]2O[C@@H]3COP(=O)(O)O[C@H]4[C@@H](O)[C@H](n5cnc6c(=O)[nH]c(N)nc65)O[C@@H]4COP(=O)(O)O[C@H]3[C@H]2O)c(=O)[nH]1` [c-di-GMP, 3′-5′ c-di-GMP] the “priming of B cells for induction of Il27p28 and Ebi3” value (B cells [2]) was “sufficient” and the “IL-27 secretion / IL-27 induction” value (B cells [2]) was “at the same magnitude as those of IL-27 induced by the gold-standard condition”.

B1: IL-27: pleiotropic cytokine, heterodimer of IL-27p28 and EBI3 (protein, UniProt Q8NEV9 29-243; Q14213 21-229, looked up)
Interleukin-27 subunit alpha: FPRPPGRPQLSLQELRREFTVSLHLARKLLSEVRGQAHRFAESHLPGVNLYLLPLGEQLPDVSLTFQAWRRLSDPERLCFISTTLQPFHALLGGLGTQGRWTNMERMQLWAMRLDLRDLQRHLRFQVLAAGFNLPEEEEEEEEEEEEERKGLLPGALGSALQGPAQVSWPQLLSTYRLLHSLELVLSRAVRELLLLSKAGHSVWPLGFPTLSPQP
Interleukin-27 subunit beta: RKGPPAALTLPRVQCRASRYPIAVDCSWTLPPAPNSTSPVSFIATYRLGMAARGHSWPCLQQTPTSTSCTITDVQLFSMAPYVLNVTAVHPWGSSSSFVPFITEHIIKPDPPEGVRLSPLAERQLQVQWEPPGSWPFPEIFSLKYWIRYKRQGAARFHRVGPIEATSFILRAVRPRARYYVQVAAQDLTDYGELSDWSLPATATMSLGK
For B1, the “STAT1/STAT3 activation, T-bet expression and IFNγ gene signature in B cells” value (B cells [4]) is listed as “induce STAT1/STAT3 activation, T-bet expression, and IFNγ gene signature”, the “IFNγ in ILC3s” value (ILC3s; [6]) is listed as “did not affect” and the “IL-17 in ILC3s” value (ILC3s; [6]) is listed as “reduced”. For the same molecule, the “expression of IL-22 in ILC3s” value (ILC3s; [6]) was “upregulated”, the “expression of T-bet in ILC3s” value (ILC3s; [6]) was “upregulated” and the “polarization of ILC3s to express T-bet and IL-22” value (ILC3s; in vitro) was “polarizes ILC3s to express T-bet and IL-22; also recorded: can polarize ILC3s in vitro to express T-bet and IL-22”.

B2: human IL-27: human cytokine IL-27 (protein, UniProt Q8NEV9 29-243; Q14213 21-229, looked up)
Interleukin-27 subunit alpha: FPRPPGRPQLSLQELRREFTVSLHLARKLLSEVRGQAHRFAESHLPGVNLYLLPLGEQLPDVSLTFQAWRRLSDPERLCFISTTLQPFHALLGGLGTQGRWTNMERMQLWAMRLDLRDLQRHLRFQVLAAGFNLPEEEEEEEEEEEEERKGLLPGALGSALQGPAQVSWPQLLSTYRLLHSLELVLSRAVRELLLLSKAGHSVWPLGFPTLSPQP
Interleukin-27 subunit beta: RKGPPAALTLPRVQCRASRYPIAVDCSWTLPPAPNSTSPVSFIATYRLGMAARGHSWPCLQQTPTSTSCTITDVQLFSMAPYVLNVTAVHPWGSSSSFVPFITEHIIKPDPPEGVRLSPLAERQLQVQWEPPGSWPFPEIFSLKYWIRYKRQGAARFHRVGPIEATSFILRAVRPRARYYVQVAAQDLTDYGELSDWSLPATATMSLGK
With B2 the “activation of STAT transcription factors” value [5] was “can activate STAT transcription factors”.
